By MIC is commonly meant the least concentration at which growth counts as inhibited.

≈ marks a conversion by molar mass, not a printed value. Residues, ends and D or L forms follow the SMILES beside them.

The subject of series [1] is MCP-1 release by human PBMC. In words: Chemokine induction in PBMC (capture ELISA). The series is classed as cell-based. Particulars: background (204) subtracted. In a few lines:
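Heparinized blood from healthy volunteers; Ficoll-isolated human PBMC (7.5×10^5) treated with peptides at 20 or 100 μg/ml for 24 hours at 37° C, 5% CO2. Cell-free supernatants assayed for MCP-1 by capture ELISA.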
Background: In an ELISA, binding on a coated surface is turned into a signal by an enzyme label.

Series [2] has as its system MCP-3 release by human PBMC. The series can be described thus: Chemokine induction in PBMC (capture ELISA). The series is classed as cell-based. Particulars: background (6) subtracted. In a few lines:
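Human PBMC from healthy donors (Ficoll-isolated), 7.5×10^5 cells at 0.75–1×10^6 cells/ml, treated with peptides at 20 or 100 μg/ml for 24 h at 37° C, 5% CO2. MCP-3 in cell-free supernatants measured by capture ELISA.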

Series [3] concerns Enterococcus faecalis ATCC29212. In kind it is cell-based. Particulars: ATCC29212. In outline:
(§1)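 MIC by modified broth microdilution in Mueller Hinton medium. Peptides were diluted in 0.01% acetic acid with 0.2% BSA and added at 10× to inoculum of 2-7×10^5 CFU/ml, then incubated overnight at 37 °C. MIC is the lowest concentration with no visible growth.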

Series [4] deals with Escherichia coli UB1005. The series is classed as cell-based. Conditions: UB1005. In outline:
as §1

Series [5] deals with Staphylococcus aureus ATCC25923. The series is classed as cell-based. Conditions: ATCC25923. In a few lines:
as §1

Series [6] deals with clinical isolate of Staphylococcus epidermidis. In kind it is cell-based. Conditions: clinical isolate of. In a few lines: as §1
For series [7], the system named is wild-type Salmonella enterica ssp. typhimurium. The series is classed as cell-based. In a few lines:
as §1

Series [8] has as its system lab isolate of Candida albicans. The series is classed as cell-based. Particulars: lab isolate of. In a few lines:
as §1

The subject of series [9] is CXCL1 (Gro-α) release by human PBMC. The series can be described thus: Chemokine induction in PBMC (capture ELISA). The series is classed as cell-based. Conditions: background (196) subtracted. In outline:
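Human PBMC from healthy donors' heparinised blood (Ficoll), 7.5×10^5 cells treated with 20 or 100 μg/ml peptide for 24 h at 37° C, 5% CO2. Cell-free supernatants assayed for CXCL1 by capture ELISA.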

Series [10] concerns IL8 release by human PBMC. The series can be described thus: Chemokine induction in PBMC (capture ELISA). The series is classed as cell-based. Particulars: 20 or 100 μg/ml peptide, 24 hours (FIG. 14). The procedure: FIG. 14. Induction of IL8 release by 7.5×10^5 human PBMC in response to treatment with 20 or 100 μg/ml of different peptides for 24 hours.
Venous blood (20 ml) from healthy volunteers was collected in Vacutainer® collection tubes containing sodium heparin as an anticoagulant (Becton Dickinson, Mississauga, ON) in accordance with UBC ethical approval and guidelines. Blood was diluted 1:1 with complete RPMI 1640 medium and separated by centrifugation over a Ficoll-Paque® Plus (Amersham Biosciences, Piscataway, N.J., USA) density gradient. White blood cells were isolated from the buffy coat, washed twice in RPMI 1640 complete medium, and the number of peripheral blood mononuclear cells (PBMC) was determined by trypan blue exclusion. PBMC (5×10^5) were seeded into 12-well tissue culture dishes (Falcon; Becton Dickinson) at 0.75 to 1×10^6 cells/ml at 37° C. in 5% CO2. The above conditions were chosen to mimic conditions for circulating blood monocytes entering tissues at the site of infection via extravasation.
Following incubation of the cells under various treatment regimens, the tissue culture supernatants were centrifuged at 1000×g for 5 min, then at 10,000×g for 2 min to obtain cell-free samples. Supernatants were aliquoted and then stored at −20° C. prior to assay for various chemokines by capture ELISA (eBioscience and BioSource International Inc., CA, USA respectively)

Series [11] has as its system Pseudomonas aeruginosa PAO1 strain H103. In kind it is cell-based. In a few lines: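 Modified broth microdilution MIC in Mueller Hinton medium, peptides diluted in 0.01% acetic acid/0.2% BSA, polypropylene plates. Inoculum 2-7×10^5 CFU/ml, overnight at 37 °C; MIC is the lowest concentration with no visible growth.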
For series [12], the system named is S. aureus. The series can be described thus: Mouse model of aggressive bacterial infection (intraperitoneal). The series is classed as in vivo. Particulars: 1.6×10^10 CFU IP; 4 mg/kg peptide IP four hours post infection; total infection time 24 hours; saline controls 100% death. How it is done:
FIG. 10. Ability of new antimicrobial peptides HHC-10 and HHC-36 to protect mice against Staph aureus infections. Bacterial loads in the peritoneal lavage from individual mice after 24 hours of infection are shown (solid circles). Dead animals were assigned the highest colony forming unit (CFU) count obtained in the experiment. The solid line represents the arithmetic mean for each group.
FIG. 18. […] Mice were treated with 1.6×10^10 CFU of S. aureus intraperitoneally. Four hours post infection they received a dose of 8 mg/kg peptide IP. The infection was allowed to progress for 4 or 24 hours after which mice were euthanaised and plate counts of staphylococci surviving in the peritoneum were determined. Bacterial loads in the peritoneal lavage from individual mice after 24 hours of infection are shown (solid circles). The solid line represents the arithmetic mean for each group.
FIG. 19. […] Mice were treated with 1.6×10^10 CFU of S. aureus intraperitoneally. Four hours post infection they received a dose of 8 mg/kg peptide IP. The infection was allowed to progress for 4 or 24 hours after which mice were euthanaised and plate counts of staphylococci surviving in the peritoneum were determined. Bacterial loads in the peritoneal lavage from individual mice after 24 hours of infection are shown (solid circles). The solid line represents the arithmetic mean for each group.
To further confirm this, a mouse model of aggressive bacterial infection, widely used to assess antibiotic efficacy, was utilized. Mice were treated with 1.6×10^10 CFU IP. Four hours post infection they received a dose of 4 mg/kg peptide IP. The infection was allowed to progress for 20 more hours, for a total infection time of 24 hours.
These immunomodulatory activities led to protection against infections by S. aureus. Briefly a mouse model of aggressive bacterial infection, widely used to assess antibiotic efficacy, was utilized. […] The infection was allowed to progress for 4 or 24 hours after which mice were euthanaised and plate counts of staphylococci surviving in the peritoneum were determined.

For series [13], the system named is ESBL E. cloacae. In kind it is cell-based, Enterobacter cloacae. In a few lines: (§2)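 Modified broth microdilution in Mueller Hinton medium, peptides serially diluted in 0.01% acetic acid with 0.2% BSA in polypropylene plates. Inoculum 2-7×10^5 CFU/ml, overnight incubation at 37° C; MIC taken as lowest concentration with no visible growth.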
Series [14] has as its system clinical isolates of MRSA. In kind it is cell-based, Staphylococcus aureus. In a few lines:
as §2

Series [15] concerns ESBL Klebsiella pneumonia clinical strain 63575. The series is classed as cell-based. In outline:
(§3)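 Broth microdilution in Mueller Hinton medium, peptides serially diluted in 0.01% acetic acid with 0.2% BSA in polypropylene plates. Inoculum 2-7×10^5 CFU/ml, incubated overnight at 37° C. MIC is the lowest concentration with no visible growth.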

In series [16] the test system is ESBL E. coli clinical strain 64771. In kind it is cell-based. Conditions: ESBL clinical strain 64771. In a few lines: as §3
Series [17] has as its system multidrug resistant Pseudomonas maltophilia ATCC13637. The series is classed as cell-based. In a few lines: as §3
In series [18] the test system is Liverpool Epidemic Strains. In kind it is cell-based, Pseudomonas aeruginosa. In a few lines:
as §2

For series [19], the system named is VRE Vancomycin resistant Enterococcus faecalis clinical isolates. In kind it is cell-based. In outline:
as §3

Series [20] deals with multidrug resistant Brazilian clinical isolates of P. aeruginosa. The series is classed as cell-based, Pseudomonas aeruginosa. In outline:
as §2

Series [21] can be described thus: LDH release. The series is classed as cell-based. On the set-up: dose or concentration left out as unconfirmed. How it is done:
In addition the following peptides were tested for LDH release: 1002, 1005, 1012, 1010, 1013, 1018, 1020, 1026, 1028, 1032, 1033, 1035, and 1037.

For `CC(C)[C@H](NC(=O)[C@H](CCCNC(=N)N)NC(=O)[C@H](Cc1ccccc1)NC(=O)[C@H](CCCNC(=N)N)NC(=O)[C@H](Cc1ccccc1)NC(=O)[C@H](CCCNC(=N)N)NC(=O)[C@H](Cc1ccccc1)NC(=O)[C@H](CCC(N)=O)NC(=O)[C@@H](N)Cc1c[nH]cn1)C(=O)N[C@@H](CCCNC(=N)N)C(=O)N[C@@H](CCCNC(=N)N)C(=O)N[C@@H](CCCCN)C(N)=O` [HH13, HQFRFRFRVRRK] (H-HQFRFRFRVRRK-NH2; N-terminus assumed), the “Chemokine induction MCP-1” value in series [1] (20 μg/ml peptide) came to 1 pg/mL; in [1] (100 μg/ml peptide) it was 0 pg/mL. For the same compound, the figures for the “Chemokine induction MCP-3” value in [2] (20 μg/ml peptide) and in [2] (100 μg/ml peptide) were 40 pg/mL and 54 pg/mL, respectively. The “MIC E. faecalis” value in series [3] is greater than 50 µg/mL. In addition, the “MIC E. coli” value in series [4] came to 25 µg/mL (≈ 14.4 µM). Moreover, in series [5], the “MIC S. aureus” value was 12 µg/mL (≈ 6.93 µM). The “MIC S. epi.” value in [6] stood at 6 µg/mL (≈ 3.46 µM). Moreover, the “MIC S. typhi” value in series [7] was found to be 12 µg/mL (≈ 6.93 µM). Also, the “MIC C. albicans” value in series [8] was greater than 50 µg/mL. Moreover, the “Chemokine induction Gro-α” value was found to be 15 pg/mL in series [9] (20 μg/ml peptide) and 42 pg/mL in series [9] (100 μg/ml peptide). Moreover, the “induction of IL8” value in [10] is given as “strongest abilities to induce this chemokine”. In addition, the “MIC P. aerug” value in series [11] (PAO1) stood at 50 µg/mL (≈ 28.9 µM).

As to `N=C(N)NCCC[C@H](NC(=O)[C@H](CCCNC(=N)N)NC(=O)[C@H](Cc1c[nH]c2ccccc12)NC(=O)[C@H](Cc1c[nH]c2ccccc12)NC(=O)[C@H](CCCCN)NC(=O)[C@H](Cc1c[nH]c2ccccc12)NC(=O)[C@H](Cc1c[nH]c2ccccc12)NC(=O)[C@H](CCCNC(=N)N)NC(=O)[C@@H](N)CCCCN)C(N)=O` [HHC36, KRWWKWWRR] (H-KRWWKWWRR-NH2; N-terminus assumed), in [12], the mice protected was 60%. Further, the MIC was determined as 11 µM (≈ 16.4 µg/mL) in series [13]; 1.4 µM (≈ 2.08 µg/mL) in series [14]; 43 µM (≈ 63.9 µg/mL) in [3]; 3 µM (≈ 4.46 µg/mL) in [5]; 22 µM (≈ 32.7 µg/mL) in series [15]; 3 µM (≈ 4.46 µg/mL) in series [16]. Further, the figures for the MIC in series [17] and in series [18] were 1.4 µM (≈ 2.08 µg/mL) and 0.3 µM (≈ 0.446 µg/mL), respectively. Besides, the “Chemokine induction MCP-1” value in series [1] (20 μg/ml peptide) was 38 pg/mL; in series [1] (100 μg/ml peptide), 168 pg/mL. In addition, the “Chemokine induction MCP-3” value in series [2] (20 μg/ml peptide) and in series [2] (100 μg/ml peptide) was 1 pg/mL in each case. Also, the “Chemokine induction Gro-α” value in series [9] (20 μg/ml peptide) was 19 pg/mL; in series [9] (100 μg/ml peptide) it was -8 pg/mL.

Consider `CC[C@H](C)[C@H](NC(=O)[C@H](CC(N)=O)NC(=O)[C@H](CCCCN)NC(=O)[C@H](Cc1ccccc1)NC(=O)[C@H](CCCNC(=N)N)NC(=O)[C@H](Cc1c[nH]c2ccccc12)NC(=O)[C@H](C)N)C(=O)N[C@@H](CCCNC(=N)N)C(=O)N[C@@H](CCCCN)C(N)=O` [HHC126, AWRFKNIRK] (H-AWRFKNIRK-NH2; N-terminus assumed), for which the MIC is greater than 223 µM in series [13]; greater than 223 µM in series [14]; greater than 223 µM in [3]; 223 µM (≈ 272 µg/mL) in series [5]; greater than 223 µM in [15]; 223 µM (≈ 272 µg/mL) in [16]. Moreover, the MIC in series [19] was greater than 223 µM; in series [17] it was greater than 223 µM; in [20], greater than 223 µM; in series [18] it was 111 µM (≈ 135 µg/mL). The “Chemokine induction MCP-1” value came out at 314 pg/mL in [1] (20 μg/ml peptide) and 104 pg/mL in series [1] (100 μg/ml peptide). Besides, the “Chemokine induction MCP-3” value in [2] (20 μg/ml peptide) turned out to be 3 pg/mL; in [2] (100 μg/ml peptide) it was 0 pg/mL. For the same compound, the results for the “Chemokine induction Gro-α” value in series [9] (20 μg/ml peptide) and in series [9] (100 μg/ml peptide) were 75 pg/mL and -2 pg/mL, respectively. Besides, the “antimicrobial activity against P. aeruginosa PAO1 (in words)” value in [11] (laboratory strain P. aeruginosa PAO1) is “did not return any generally active substances”.

Turning to `CC[C@H](C)[C@H](NC(=O)[C@H](CCCNC(=N)N)NC(=O)[C@@H](NC(=O)[C@H](C)NC(=O)[C@@H](NC(=O)[C@@H](NC(=O)[C@H](CC(C)C)NC(=O)[C@H](CCCNC(=N)N)NC(=O)[C@@H](N)C(C)C)[C@@H](C)CC)C(C)C)C(C)C)C(=O)N[C@@H](Cc1c[nH]c2ccccc12)C(=O)N[C@@H](CCCNC(=N)N)C(=O)N[C@@H](CCCNC(=N)N)C(N)=O` [compound 1018, VRLIVAVRIWRR] (H-VRLIVAVRIWRR-NH2), in series [21], the LDH release entry is “None showed any LDH release”.
